By Ki is commonly meant the dissociation constant of the complex between target and ligand, obtained from inhibition or displacement. Lower therefore signals a stronger hold on the target. One may read the IC50 as the concentration that gives 50% inhibition. Higher therefore signals a need for much substance.

Ki and IC50 data for 39 compounds are collected here from ChEMBL document CHEMBL1141122, “Receptor flexibility in de novo ligand design and docking” (J Med Chem, 2005).

For experiment [1], the target named is T1, Interstitial collagenase (Homo sapiens, UniProt P03956).
T1 sequence (P03956 whole entry): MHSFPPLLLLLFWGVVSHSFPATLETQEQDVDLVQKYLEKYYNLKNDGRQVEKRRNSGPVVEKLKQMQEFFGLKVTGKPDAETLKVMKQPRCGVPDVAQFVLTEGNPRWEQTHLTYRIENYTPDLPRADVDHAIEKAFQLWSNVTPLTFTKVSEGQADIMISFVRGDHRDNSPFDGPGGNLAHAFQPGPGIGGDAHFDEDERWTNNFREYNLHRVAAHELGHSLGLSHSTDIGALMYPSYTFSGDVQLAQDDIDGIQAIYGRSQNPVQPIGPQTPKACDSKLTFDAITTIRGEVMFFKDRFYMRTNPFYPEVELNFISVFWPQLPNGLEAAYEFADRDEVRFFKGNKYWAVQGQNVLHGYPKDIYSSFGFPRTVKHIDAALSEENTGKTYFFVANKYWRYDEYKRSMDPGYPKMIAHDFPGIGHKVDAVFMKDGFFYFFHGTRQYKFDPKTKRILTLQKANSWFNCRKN
Kind of experiment: Binding affinity towards (MMP-1) matrix metalloprotease-1.

Experiment [2] has as its target T1, Interstitial collagenase. Kind of experiment: Inhibitory concentration against (MMP-1) matrix metalloprotease-1.

For `O=C(CCS(=O)(=O)c1ccc(Oc2ccncc2)cc1)NO`, on Interstitial collagenase [1], the affinity corresponds to a Ki of 8.2 nM.
On the same count and under the same terms, as for `O=C(CNC(=O)c1ccc(C(F)(F)F)cc1)NO`, the figure is 3 nM; as for `O=C(CCC(=O)N1CCC(Oc2ccc(-n3ccnc3)cc2)CC1)NO`, 224 nM; as for `O=C(CNC(=O)c1ccc(Oc2ccc(Cl)cc2)cc1)NO`, 70 nM.
Turning to `O=C1CC=C2C=CC=C(S(=O)(=O)NCC(=O)NO)N2C1`, at Interstitial collagenase [2], the IC50 came out at 1.3 nM. This counts as single-digit nanomolar.
Regarding `CCCCOc1ccc(S(=O)(=O)CCC(=O)NO)cc1`, at Interstitial collagenase [2], the IC50 was 920 nM. This IC50 lies about 710-fold higher than the previous one.
Still for that read-out and setting: the figure for `Cc1cc(F)ccc1COc1ccc(C(=O)CCC(=O)NO)cc1` is 10 nM.
On the same count and under the same terms, the figure for `CCCCOc1ccc(S(=O)(=O)NCC(=O)NO)cc1` is 920 nM; for `Cc1cc(F)ccc1COc1ccc(S(=O)(=O)NCC(=O)NO)cc1` it is 10 nM.
As for `O=C(CCS(=O)(=O)N1CCC(Oc2ccc(-n3ccnc3)cc2)CC1)NO`, the Ki on Interstitial collagenase [1] worked out at 224 nM.
`CCCCOc1ccc(C(=O)NCC(=O)NO)cc1` returned an IC50 against Interstitial collagenase [2] of 920 nM.
On to `COc1ccc(C(=O)CCC(=O)NO)cc1`, for which affinity on Interstitial collagenase [1] was put at a Ki of 33 nM.
As for `COc1ccc(C(=O)NCC(=O)NO)cc1`, the affinity on Interstitial collagenase [1], expressed as Ki, was 33 nM.
On the same count and under the same terms, the figure for `O=C(CNC(=O)c1ccc(Oc2ccncc2)cc1)NO` is 8.2 nM.
Same read-out and setting: as for `O=C(CCS(=O)(=O)c1ccc(Oc2ccc(Cl)cc2)cc1)NO`, the figure is 70 nM.
At Interstitial collagenase [2], `O=C(CNS(=O)(=O)c1ccc(Oc2ccccc2)cc1)NO` gave an IC50 of 22 nM.
On to `O=C(CNC(=O)c1ccc(Oc2ccccc2)cc1)NO`, for which 22 nM corresponded to half-maximal inhibition at Interstitial collagenase [2] (IC50).
Still for that read-out and setting: the figure for `CC#COc1ccc(S(=O)(=O)NCC(=O)NO)cc1` is 121 nM.
`CCCCOc1ccc(C(=O)CCC(=O)NO)cc1`: half-maximal inhibition on Interstitial collagenase [2] (IC50) was put at 920 nM.
Still for that read-out and setting: the figure for `Cc1cc(F)ccc1COc1ccc(S(=O)(=O)CCC(=O)NO)cc1` is 10 nM; for `CC#COc1ccc(C(=O)NCC(=O)NO)cc1` it is 121 nM.
On the same count and under the same terms, as for `O=C(CCS(=O)(=O)c1ccc(Oc2ccccc2)cc1)NO`, the figure is 22 nM.
For the compound `O=C(CNS(=O)(=O)c1ccc(Oc2ccncc2)cc1)NO`, the Ki at Interstitial collagenase [1] is 8.2 nM.
At Interstitial collagenase [2], `O=C1CC=C2C=CC=C(C(=O)NCC(=O)NO)N2C1` showed an IC50 of 1.3 nM.
As for `O=C(CCS(=O)(=O)c1ccc(C(F)(F)F)cc1)NO`, affinity at Interstitial collagenase [1] was put at a Ki of 3 nM.
Regarding `O=C(CNS(=O)(=O)c1ccc(Oc2ccc(Cl)cc2)cc1)NO`, affinity at Interstitial collagenase [1] was put at a Ki of 70 nM.
In turn, `O=C1CC=C2C=CC=C(S(=O)(=O)CCC(=O)NO)N2C1` showed an IC50 at Interstitial collagenase [2] of 1.3 nM.
For the compound `O=C(CNC(=O)N1CCC(Oc2ccc(-n3ccnc3)cc2)CC1)NO`, the Ki at Interstitial collagenase [1] was found to be 224 nM.
Take `O=C(CCC(=O)c1ccc(Oc2ccc(Cl)cc2)cc1)NO`: the affinity on Interstitial collagenase [1], expressed as Ki, was 70 nM.
Regarding `CC#COc1ccc(S(=O)(=O)CCC(=O)NO)cc1`, half-maximal inhibition at Interstitial collagenase [2] (IC50) required 121 nM.
For the compound `O=C1CC=C2C=CC=C(C(=O)CCC(=O)NO)N2C1`, the concentration for half-maximal inhibition (IC50) against Interstitial collagenase [2] was found to be 3 nM.
On to `COc1ccc(S(=O)(=O)CCC(=O)NO)cc1`, for which the inhibition constant (Ki) on Interstitial collagenase [1] was 33 nM.
On to `O=C(CNS(=O)(=O)N1CCC(Oc2ccc(-n3ccnc3)cc2)CC1)NO`, for which, on Interstitial collagenase [1], the affinity corresponds to a Ki of 224 nM.
In turn, `O=C(CCC(=O)c1ccc(Oc2ccncc2)cc1)NO` came in with an inhibitory constant (Ki) on Interstitial collagenase [1] of 8.2 nM. This Ki is about 27-fold lower than that of the compound before.
Consider `Cc1cc(F)ccc1COc1ccc(C(=O)NCC(=O)NO)cc1`, for which 10 nM corresponded to half-maximal inhibition on Interstitial collagenase [2] (IC50).
The compound `O=C(CNS(=O)(=O)c1ccc(C(F)(F)F)cc1)NO` came in with a Ki at Interstitial collagenase [1] of 3 nM. This lies in the single-digit nanomolar range.
On the same count and under the same terms, as for `O=C(CCC(=O)c1ccc(C(F)(F)F)cc1)NO`, the figure is 3 nM.
In turn, `CC#COc1ccc(C(=O)CCC(=O)NO)cc1` had a half-maximal inhibitory concentration (IC50) at Interstitial collagenase [2] of 121 nM.
On the same count and under the same terms, as for `O=C(CCC(=O)c1ccc(Oc2ccccc2)cc1)NO`, the figure is 22 nM.
